Test results published in PMC7187165, “Structure‐Based Design, Synthesis, and Biological Evaluation of Triazole‐Based smHDAC8 Inhibitors” (Chemmedchem, 2020).

Target: T1, smHDAC8 (Schistosoma mansoni, UniProt A5H660)
T1 construct: made in house; host or cells: E. coli
T1 sequence (A5H660 1-440): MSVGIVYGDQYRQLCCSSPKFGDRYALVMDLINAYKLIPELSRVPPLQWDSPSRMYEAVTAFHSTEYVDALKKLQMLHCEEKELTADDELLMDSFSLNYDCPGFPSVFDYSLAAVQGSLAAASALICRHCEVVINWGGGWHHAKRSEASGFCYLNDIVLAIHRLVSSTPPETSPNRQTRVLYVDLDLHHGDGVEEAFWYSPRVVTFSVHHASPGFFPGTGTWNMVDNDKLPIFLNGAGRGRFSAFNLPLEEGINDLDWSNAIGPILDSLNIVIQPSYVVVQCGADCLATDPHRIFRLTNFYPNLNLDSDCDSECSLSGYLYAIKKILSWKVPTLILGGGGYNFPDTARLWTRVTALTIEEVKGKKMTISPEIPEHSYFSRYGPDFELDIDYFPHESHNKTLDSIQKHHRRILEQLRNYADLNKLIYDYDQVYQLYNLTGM
Assay: biochemical
Type: biochemical
Settings: 5 μM; pretest; read-out: smHDAC8 % inhibition @ 5 μM (Fluor de Lys)

SMILES | inhibition at 5 µM [%]
O=C(NO)c1cn(-c2ccccc2Oc2ccccc2)nn1 [Compound 28] | 49.1
O=C(NO)c1cn(-c2cc(Cl)ccc2Oc2ccccc2)nn1 [Compound 29, 1‐(5‐Chloro‐2‐phenoxyphenyl)‐N‐hydroxy‐1H‐1,2,3‐triazole‐4‐carboxamide] | 51.4
O=C(NO)c1cn(-c2ccccc2C(=O)c2ccccc2)nn1 [Compound 32, 1‐(2‐Benzoylphenyl)‐N‐hydroxy‐1H‐1,2,3‐triazole‐4‐carboxamide] | 23.4

Same assay, conditions: 50 μM; pretest; read-out: smHDAC8 % inhibition @ 50 μM (Fluor de Lys)

SMILES | inhibition at 50 µM [%]
O=C(NO)c1cn(-c2cc(Cl)ccc2OCc2ccc3ccccc3c2)nn1 [Compound 16] | 43.5
O=C(NO)c1cn(-c2cc(Cl)ccc2OCc2ccc(I)cc2)nn1 [Compound 17, 1‐{5‐Chloro‐2‐[(4‐iodobenzyl)oxy]phenyl}‐N‐hydroxy‐1H‐1,2,3‐triazole‐4‐carboxamide] | 21
O=C(NO)c1cn(-c2ccccc2Oc2ccccc2)nn1 [Compound 28] | 87.9
O=C(NO)c1cn(-c2cc(Cl)ccc2Oc2ccccc2)nn1 [Compound 29, 1‐(5‐Chloro‐2‐phenoxyphenyl)‐N‐hydroxy‐1H‐1,2,3‐triazole‐4‐carboxamide] | 91.5
O=C(NO)c1cn(-c2ccccc2C(=O)c2ccccc2)nn1 [Compound 32, 1‐(2‐Benzoylphenyl)‐N‐hydroxy‐1H‐1,2,3‐triazole‐4‐carboxamide] | 75.4

Same assay, conditions: @ 10 μM; pretest n=1

SMILES | smHDAC8 (% inhibition, Fluor de Lys)
O=C(NO)c1cn(-c2ccc(C#CC#Cc3ccccc3)cc2)nn1 [Compound 2 j, N ‐Hydroxy‐1‐[4‐(4‐phenylbuta‐1,3‐diynyl)phenyl]‐1H‐1,2,3‐triazole‐4‐carboxamide] | nearly no inhibitory activity

Same assay, conditions: @ 10 μM; pretest n=1; read-out: smHDAC8 (% inhibition, Fluor de Lys)

SMILES | inhibition at 10 µM [%]
O=C(NO)c1cn(Cc2ccccc2)nn1 [Compound 2 c] | 39.6
O=C(NO)c1cn(Cc2ccc(F)cc2)nn1 [Compound 2 d] | 36.1
Cl.O=C(NO)c1cn(-c2ccc(C#Cc3ccc(CN4CCOCC4)cc3)cc2)nn1 [Compound 2 i] | 48
O=C(NO)c1cn(-c2ccc(C#CC#Cc3ccccc3)cc2)nn1 [Compound 2 j, N ‐Hydroxy‐1‐[4‐(4‐phenylbuta‐1,3‐diynyl)phenyl]‐1H‐1,2,3‐triazole‐4‐carboxamide] | 6.8

System: S. mansoni larvae (schistosomula)
Assay: Schistosome viability testing, resazurin-based fluorescence assay
Type: cell-based, Schistosoma mansoni
Settings: Schistosoma mansoni, 72 h, read-out: % viability of S. mansoni schistosomula
Procedure: Selected compounds (Table 4) were tested for their effects on the viability of S. mansoni larvae (schistosomula) using a resazurin‐based fluorescence assay that measures mitochondrial activity. Assays were carried out in triplicate on two separate batches of schistosomula and the results are expressed as the percentage of the value obtained with the solvent (DMSO). Initial testing was done at 10 μM as part of a high‐throughput screening procedure and compounds provoking at least a 25 % reduction in viability were tested at 20 μM to determine a dose‐response. […] However, the level of reduction obtained was mediocre and this compound was not considered for further testing. […] A variety of schistosome viability assays are currently used in the field [e. g. […] However, since we have compared compounds that a priori have the same biological target, it is unlikely that they will have different effects on the parasite and that a different viability assay, for example based on morphological characteristics,52 would give different results. Nevertheless, in view of the potency of the triazole‐based smHDAC8 inhibitors on the enzyme, their further development, aimed at improving their bioavailability, is justified.
Schistosome viability testing: The resazurin‐based assay to determine the effects of novel inhibitors targeting smHDAC8 on the viability of S. mansoni schistosomula was carried out exactly as previously described.27, 62 Briefly, newly transformed schistosomula (NTS) were obtained in vitro as previously described63 by mechanical transformation of S. mansoni cercaria. A suspension of NTS was prepared at a concentration of 100 per 100 μL using Medium 199 (Invitrogen) supplemented with 10 % fetal calf serum (Gibco), penicillin (50 U×mL^−1), streptomycin (50 μg×mL^−1), and rifampicin (60 μg×mL^−1). Schistosomula were kept in culture for 3 h at 37 °C and 5 % CO2 prior to use in screening. Drug stock solutions of 20 mM in DMSO were used. Mid‐dilutions were performed in 100 % DMSO and 1 μL added to 100 μL/well of M199 medium in black 96 well plates (Nunc, UK) with supplemented Medium 199 and 100 μL of the prepared NTS suspension (100 NTS/well). Live and dead schistosomula (treated with 70 % ethanol) were used as positive and negative controls. Experiments were carried out in triplicate wells in two biological replicates and the compounds were tested at final concentrations of 10 and 20 μM. After 48 h of drug exposure, 20 μL of resazurin solution (Abd Serotec) were added to each well. Finally, after 72 h of exposure, the fluorescence intensity of the highly red fluorescent resorufin product was measured using an excitation wavelength of 530 nm and an emission wavelength of 590 nm in an Infinite M200 Pro microplate reader (TECAN). Background fluorescence of the drug containing medium were determined for each drug dilution using wells containing only DMSO as control.

SMILES | viability at 10 µM [%] | viability at 20 µM [%]
O=C(NO)c1cn(-c2cc(Cl)ccc2Oc2ccccc2)nn1 [Compound 29, 1‐(5‐Chloro‐2‐phenoxyphenyl)‐N‐hydroxy‐1H‐1,2,3‐triazole‐4‐carboxamide] | 64.2 | 49.9

Same assay, conditions: at 10 and 20 μM

SMILES | reduction in viability of schistosomula (in words)
O=C(NO)c1cn(-c2cc(Cl)ccc2Oc2ccccc2)nn1 [Compound 29, 1‐(5‐Chloro‐2‐phenoxyphenyl)‐N‐hydroxy‐1H‐1,2,3‐triazole‐4‐carboxamide] | significant reduction in viability

System: not given
Assay: not given
Settings: not given

SMILES | melting point
O=C(NO)c1cn(Cc2ccccc2)nn1 [Compound 2 c] | 183 °C
Cl.O=C(NO)c1cn(-c2ccc(C#Cc3ccc(CN4CCOCC4)cc3)cc2)nn1 [Compound 2 i] | 239 °C (dec.)

Target: hsHDAC1 (Homo sapiens, UniProt Q13547)
Assay: not given
Design: method as in PMID 19007204
Settings: cited from earlier work

Sequence of hsHDAC1 (Q13547 whole entry): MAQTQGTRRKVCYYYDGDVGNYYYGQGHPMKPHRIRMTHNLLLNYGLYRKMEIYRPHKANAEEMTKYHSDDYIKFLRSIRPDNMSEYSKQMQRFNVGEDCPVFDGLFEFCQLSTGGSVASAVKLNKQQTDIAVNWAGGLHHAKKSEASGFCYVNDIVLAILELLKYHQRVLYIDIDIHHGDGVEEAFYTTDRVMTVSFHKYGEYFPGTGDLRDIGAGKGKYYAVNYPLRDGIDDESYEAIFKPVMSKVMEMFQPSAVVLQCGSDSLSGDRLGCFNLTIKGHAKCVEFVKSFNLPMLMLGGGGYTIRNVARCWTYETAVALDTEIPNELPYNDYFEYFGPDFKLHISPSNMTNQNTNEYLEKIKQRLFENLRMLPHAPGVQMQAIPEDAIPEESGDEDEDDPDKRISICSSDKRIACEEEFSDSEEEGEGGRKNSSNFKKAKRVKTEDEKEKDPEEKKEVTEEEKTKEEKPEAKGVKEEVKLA

SMILES | inhibition of hsHDAC1 (in words)
O=C(NO)c1cn(Cc2ccccc2)nn1 [Compound 2 c] | weakly inhibit

Target: T2, hsHDAC8 (Homo sapiens, UniProt Q9BY41)
T2 construct: made in house
T2 sequence (Q9BY41 1-377): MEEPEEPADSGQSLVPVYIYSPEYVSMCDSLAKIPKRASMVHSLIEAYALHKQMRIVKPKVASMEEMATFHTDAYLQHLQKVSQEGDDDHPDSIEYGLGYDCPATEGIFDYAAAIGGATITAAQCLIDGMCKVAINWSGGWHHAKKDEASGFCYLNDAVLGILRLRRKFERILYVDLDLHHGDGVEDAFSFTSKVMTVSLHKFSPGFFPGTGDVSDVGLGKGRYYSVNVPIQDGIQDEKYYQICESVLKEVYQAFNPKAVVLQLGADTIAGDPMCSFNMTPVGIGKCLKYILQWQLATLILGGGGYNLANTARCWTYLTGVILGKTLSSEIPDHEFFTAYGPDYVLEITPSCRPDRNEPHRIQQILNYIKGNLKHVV
Assay: not given
Design: method as in PMID 19007204
Settings: cited from earlier work

SMILES | inhibition of hsHDAC8 (in words)
O=C(NO)c1cn(Cc2ccccc2)nn1 [Compound 2 c] | weakly inhibit
